Results taken from patent US20220104492A1, “PYRIDAZINIUM COMPOUNDS FOR USE IN A METHOD OF CONTROLLING UNWANTED PLANT GROWTH” (SYNGENTA CROP PROTECTION AG, priority 2019, published 2022).
Like-named read-outs stand apart in the source and are kept apart here.

How the values were obtained:
Experiment in all cases: Post-emergence efficacy (glasshouse, spray application)
Assay type in all cases: in vivo
Eleusine indica (ELEIN) = settings: 312 h, read-out: Control of weed species after post-emergence application, ELEIN
Protocol: (§1) Seeds of a variety of test species were sown in standard soil in pots. After cultivation for 14 days (post-emergence) under controlled conditions in a glasshouse (at 24/16° C., day/night; 14 hours light; 65 humidity), the plants were sprayed with an aqueous spray solution derived from the dissolution of the technical active ingredient formula (I) in a small amount of acetone and a special solvent and emulsifier mixture referred to as IF50 (11.12% Emulsogen EL360 TM+44.44% N-methylpyrrolidone+44.44% Dowanol DPM glycol ether), to create a 50 g/l solution which was then diluted to required concentration using a solution of 0.25% or 1% Empicol ESC70 (Sodium lauryl ether sulphate)+1% ammonium sulphate in water as diluent.
(§2) The test plants were then grown in a glasshouse under controlled conditions (at 24/16° C., day/night; 14 hours light; 65% humidity) and watered twice daily. After 13 days the test was evaluated (100=total damage to plant; 0=no damage to plant).
(§3) Ipomoea hederacea (IPOHE), Euphorbia heterophylla (EPHHL), Chenopodium album (CHEAL), Amaranthus palmeri (AMAPA), Lolium perenne (LOLPE), Digitaria sanguinalis (DIGSA), Eleusine indica (ELEIN), Echinochloa crus-galli (ECHCG), Setaria faberi (SETFA)

[1] = test system: Chenopodium album (CHEAL); settings: 312 h, read-out: Control of weed species after post-emergence application, CHEAL
Protocol: as §1, §2, §3

Setaria faberi (SETFA) = settings: 312 h, read-out: Control of weed species after post-emergence application, SETFA
Protocol: as §1, §2, §3

[2] = test system: Euphorbia heterophylla (EPHHL); settings: 312 h, read-out: Control of weed species after post-emergence application, EPHHL
Protocol: as §1, §2, §3

[3] = test system: Ipomoea hederacea (IPOHE); settings: 312 h, read-out: Control of weed species after post-emergence application, IPOHE
Protocol: as §1, §2, §3

[4] = test system: Echinochloa crus-galli (ECHCG); settings: 312 h, read-out: Control of weed species after post-emergence application, ECHCG
Protocol: as §1, §2, §3

[5] = test system: Digitaria sanguinalis (DIGSA); settings: 312 h, read-out: Control of weed species after post-emergence application, DIGSA
Protocol: as §1, §2, §3

[6] = test system: Amaranthus palmeri (AMAPA); settings: 312 h, read-out: Control of weed species after post-emergence application, AMAPA
Protocol: as §1, §2, §3

Lolium perenne (LOLPE) = settings: 312 h, read-out: Control of weed species after post-emergence application, LOLPE
Protocol: as §1, §2, §3

[7] = Application rate 500 g/Ha, evaluated after 13 days, 100=total damage to plant, 0=no damage to plant

Compound	pest or weed control at 500 g/ha (Eleusine indica (ELEIN); [7])	pest or weed control at 500 g/ha [1, 7]	pest or weed control at 500 g/ha (Setaria faberi (SETFA); [7])	pest or weed control at 500 g/ha [2, 7]	pest or weed control at 500 g/ha [3, 7]	pest or weed control at 500 g/ha [4, 7]	pest or weed control at 500 g/ha [5, 7]	pest or weed control at 500 g/ha [6, 7]	pest or weed control at 500 g/ha (Lolium perenne (LOLPE); [7])	pest or weed control at 500 g/ha (Eleusine indica (ELEIN))	pest or weed control at 500 g/ha [1]	pest or weed control at 500 g/ha (Setaria faberi (SETFA))	pest or weed control at 500 g/ha [2]	pest or weed control at 500 g/ha [3]	pest or weed control at 500 g/ha [4]	pest or weed control at 500 g/ha [5]	pest or weed control at 500 g/ha [6]	pest or weed control at 500 g/ha (Lolium perenne (LOLPE))
O=C(O)COC[n+]1ccc(-c2ncccn2)cn1 [Compound A39]	60%	80%	70%	90%	80%	80%	100%	100%	70%									
CS(=O)(=O)N(CC[n+]1ccc(-c2ncccn2)cn1)CC(=O)O [Compound A19, 2-[methylsulfonyl-[2-(4-pyrimidin-2-ylpyridazin-1-ium-1-yl)ethyl]amino]acetic acid 2,2,2-trifluoroacetate]	100%	90%	70%	80%	70%	40%	70%	100%	30%									
O=C(O)CS(=O)(=O)CC[n+]1ccc(-c2ncccn2)cn1 [Compound A15]	70%	20%	50%	70%	10%	20%	60%	70%	10%									
O=C(O)CNC(=O)CC[n+]1ccc(-c2ncccn2)cn1 [Compound A14]	100%	90%	100%	100%	100%	100%	100%	100%	100%									
CN(CC(=O)O)C(=O)C[n+]1ccc(-c2ccccn2)cn1 [Compound A34]	20%	0%	40%	50%	40%	30%	20%	90%	10%									
CN(CC(=O)O)C(=O)CC[n+]1ccc(-c2ncccn2)cn1 [Compound A24]	50%	90%	70%	90%	40%	40%	100%	90%	30%									
CC(=O)N(CC[n+]1ccc(-c2ncccn2)cn1)CC(=O)O [Compound A31]	60%	90%	60%	90%	50%	60%	80%	100%	20%									
O=C(O)CNC(=O)CNC(=O)C[n+]1ccc(-c2ncccn2)cn1 [Compound A10]	90%	60%	80%	90%	40%	70%	80%	90%	40%									
CCC(NC(=O)C[n+]1ccc(-c2ncccn2)cn1)C(=O)O (stereo not drawn) [Compound A2]	70%	90%	40%	100%	100%	90%	80%	100%	40%									
CN(CC[n+]1ccc(-c2ncccn2)cn1)S(=O)(=O)CC(=O)O [Compound A30, 2-[methyl-[2-(4-pyrimidin-2-ylpyridazin-1-ium-1-yl)ethyl]-sulfamoyl]acetic acid chloride]	40%	80%	60%	90%	20%	100%	70%	100%	50%									
NC(=O)CC(NC(=O)C[n+]1ccc(-c2ncccn2)cn1)C(=O)O (stereo not drawn) [Compound A7]	30%	60%	40%	30%	0%	30%	40%	10%	0%									
O=C(O)CNC(=O)C[n+]1ccc(-c2ncccn2)cn1 [Compound A1, 2-[[2-(4-pyrimidin-2-ylpyridazin-1-ium-1-yl)acetyl]amino]acetic acid 2,2,2-trifluoroacetate]										90%	100%	60%	90%	100%	70%	90%	100%	70%
CN(CC(=O)O)C(=O)C[n+]1ccc(-c2ncccn2)cn1 [Compound A8, 2-[methyl-[2-(4-pyrimidin-2-ylpyridazin-1-ium-1-yl)acetyl]amino]acetic acid 2,2,2-trifluoroacetate]	90%	100%	70%	100%	60%	80%	70%	100%	40%									
CC(NC(=O)CC[n+]1ccc(-c2ncccn2)cn1)C(=O)O (stereo not drawn) [Compound A25]	100%	100%	90%	100%	40%	90%	100%	100%	70%									
O=C(O)CNC(=O)CC[n+]1ccc(-c2ccncn2)cn1 [Compound A23]	100%	70%	60%	90%	100%	60%	100%	100%	40%									
